Tested on: hyaluronidase
Test: degradation of hyaluronic acid by standard hyaluronidase
Assay type: biochemical
Excerpt: In the composition, the nicotinamide is not only a functional excipient adapted to protect the hyaluronic acid by virtue of its antioxidant action, but also acts against the action of the hyaluronidase, allowing the viscosupplementation features to be maintained over time. Experimental tests have shown that in a composition without nicotinamide, the hyaluronic acid is degraded by a 50% standard hyaluronidase after one hour; on the contrary, with a presence of nicotinamide in the percentages described above, the hyaluronic acid degrades by only 20% after one hour, while the normal products on the market degrade by 70%.

NC(=O)c1cccnc1 [nicotinamide]
inhibitory effect on hyaluronidase: inhibitory effect on hyaluronidase

From patent US12622863B2, “Injectable composition and use of said composition” (INNATE S.R.L., priority 2020, dated 2026)
